The values below come from ChEMBL document CHEMBL1287709, “Trifluoromethylphenyl as P2 for ketoamide-based cathepsin S inhibitors” (Bioorg Med Chem Lett, 2010).

For test [1], the target named is T1, Cathepsin S (Homo sapiens, UniProt P25774). Description: Inhibition of human cathepsin S by fluorescence assay.
Test [2] deals with T2, Cathepsin K (Homo sapiens, UniProt P43235).
T2 sequence (P43235 whole entry): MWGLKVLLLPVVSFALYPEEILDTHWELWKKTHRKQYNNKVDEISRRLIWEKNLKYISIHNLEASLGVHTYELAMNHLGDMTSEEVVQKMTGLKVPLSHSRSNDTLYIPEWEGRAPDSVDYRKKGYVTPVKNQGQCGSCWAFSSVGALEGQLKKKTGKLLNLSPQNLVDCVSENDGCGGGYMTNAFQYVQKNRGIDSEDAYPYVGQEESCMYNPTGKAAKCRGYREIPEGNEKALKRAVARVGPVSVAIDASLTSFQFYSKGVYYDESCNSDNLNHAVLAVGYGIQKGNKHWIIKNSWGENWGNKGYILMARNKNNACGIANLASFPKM
The experiment in a line: Inhibition of human cathepsin K by fluorescence assay.

In test [3] the target is Cathepsin B (Homo sapiens, UniProt P07858). Description: Inhibition of human cathepsin B by fluorescence assay.
Test [4] deals with Procathepsin L (Homo sapiens, UniProt P07711). Description: Inhibition of human cathepsin L by fluorescence assay.
Procathepsin L, sequence (P07711 whole entry): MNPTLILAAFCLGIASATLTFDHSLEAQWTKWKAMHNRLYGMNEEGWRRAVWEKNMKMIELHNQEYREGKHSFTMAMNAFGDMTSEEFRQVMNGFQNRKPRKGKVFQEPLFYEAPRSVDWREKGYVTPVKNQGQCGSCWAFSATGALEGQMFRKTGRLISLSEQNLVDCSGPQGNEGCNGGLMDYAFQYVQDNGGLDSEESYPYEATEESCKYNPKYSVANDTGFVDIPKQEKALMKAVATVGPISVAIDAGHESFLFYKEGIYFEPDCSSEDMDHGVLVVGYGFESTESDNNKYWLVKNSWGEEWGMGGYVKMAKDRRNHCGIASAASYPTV
Test [5] has as its target T3, Cathepsin L2 (Homo sapiens, UniProt O60911).
T3 sequence (O60911 whole entry): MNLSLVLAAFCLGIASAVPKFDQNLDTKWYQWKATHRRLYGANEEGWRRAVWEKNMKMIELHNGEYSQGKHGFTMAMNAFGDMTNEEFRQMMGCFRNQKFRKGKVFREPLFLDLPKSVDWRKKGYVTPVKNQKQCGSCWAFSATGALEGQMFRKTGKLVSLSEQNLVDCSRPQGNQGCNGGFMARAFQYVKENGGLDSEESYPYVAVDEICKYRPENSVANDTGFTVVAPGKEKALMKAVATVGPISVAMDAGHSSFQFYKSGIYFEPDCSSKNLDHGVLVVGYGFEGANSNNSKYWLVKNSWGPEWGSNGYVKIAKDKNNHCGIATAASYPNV
Description: Inhibition of human cathepsin V by fluorescence assay.

For test [6], the target named is T1, Cathepsin S. Description: Inhibition of cathepsin S in human JY cells assessed as Lip10 accumulation by Western blotting. Format: cell-based.

T1 sequence (P25774 whole entry): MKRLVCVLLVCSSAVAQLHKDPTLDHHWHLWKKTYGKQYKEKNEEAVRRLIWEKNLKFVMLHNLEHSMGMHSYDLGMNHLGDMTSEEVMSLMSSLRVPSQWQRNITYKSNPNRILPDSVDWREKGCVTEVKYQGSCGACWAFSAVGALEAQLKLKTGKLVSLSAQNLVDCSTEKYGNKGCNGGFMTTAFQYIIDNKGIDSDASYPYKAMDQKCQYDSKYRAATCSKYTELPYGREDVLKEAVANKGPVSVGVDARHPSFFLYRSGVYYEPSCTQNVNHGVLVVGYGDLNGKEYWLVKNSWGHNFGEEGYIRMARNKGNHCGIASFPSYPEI

Usually IC50 stands for the point on the concentration scale where inhibition reaches its midpoint. Turning to `N#CCNC(=O)c1cccc(C(F)(F)F)c1`, the IC50 in test [1] and in test [2] was more than 10000 nM each time.
Regarding `O=CCNC(=O)c1cccc(C(F)(F)F)c1`, the IC50 in test [1] and in test [2] was more than 10000 nM each time.
Consider `CCC(C=O)NC(=O)c1cccc(C(F)(F)F)c1` (stereo not drawn), for which the IC50 in test [1] was found to be 1070 nM.
On to `CCC(C=O)NC(=O)c1cccc(C(F)(F)F)c1Cl` (stereo not drawn), for which the IC50 in test [1] was determined as 31 nM; in test [2], 32 nM.
Take `CCC(C=O)NC(=O)c1cccc(C(F)(F)F)c1F` (stereo not drawn): it took 36 nM to reach half-maximal inhibition in test [1] (IC50).
Still for that read-out and setting: as for `CCC(C=O)NC(=O)c1cccc(C(F)(F)F)c1C` (stereo not drawn), the figure is 18 nM; as for `CC(C=O)NC(=O)c1cccc(C(F)(F)F)c1Cl` (stereo not drawn), 110 nM; as for `CCC(C=O)NC(=O)c1cccc(C(F)(F)F)c1OC` (stereo not drawn), 692 nM.
On to `CC(NC(=O)c1cccc(C(F)(F)F)c1Cl)C(=O)C(N)=O` (stereo not drawn), for which the figures for the half-inhibitory concentration (IC50) in test [1] and in test [2] were 30.9 nM and 107 nM, respectively.
For `CC(NC(=O)c1cccc(C(F)(F)F)c1Cl)C(=O)C(=O)Nc1cc[nH]n1` (stereo not drawn), the IC50 in test [1] is 14.1 nM; in test [2] it was 51.3 nM.
`Cc1cc(NC(=O)C(=O)C(C)NC(=O)c2cccc(C(F)(F)F)c2Cl)[nH]n1` (stereo not drawn): the IC50 turned out to be 10.5 nM in test [1] and 26.3 nM in test [2].
As for `CC(NC(=O)c1cccc(C(F)(F)F)c1Cl)C(=O)C(=O)Nc1ccn(C)n1` (stereo not drawn), the IC50 worked out at 8.5 nM in test [1] and 33.1 nM in test [2].
Consider `CCC(NC(=O)c1cccc(C(F)(F)F)c1Cl)C(=O)C(=O)Nc1ccn[nH]1` (stereo not drawn), for which the IC50 came to 2.3 nM in test [1]; 11.7 nM in test [2]; 5.75 µM in test [3]; 891 nM in test [4]; 29.5 nM in test [5]; 1300 nM in test [6].
For `CCOc1ccc(C(=O)NC(C)C(=O)C(N)=O)c(Cl)c1C(F)(F)F` (stereo not drawn), the half-inhibitory concentration (IC50) worked out at 11 nM in test [1] and 195 nM in test [2].
For `CCOc1ccc(C(=O)NC(C)C(=O)C(=O)Nc2ccn[nH]2)c(Cl)c1C(F)(F)F` (stereo not drawn) the same measures were 2.9 nM and 91.2 nM.
On to `CC(NC(=O)c1ccc(OCc2ccccn2)c(C(F)(F)F)c1Cl)C(=O)C(N)=O` (stereo not drawn), for which the half-maximal inhibitory concentration (IC50) in test [1] was 4.8 nM; in test [2], 37.2 nM.
Take `CCC(NC(=O)c1ccc(OCc2ccccn2)c(C(F)(F)F)c1Cl)C(=O)C(N)=O` (stereo not drawn): the half-inhibitory concentration (IC50) in test [1] stood at 1.1 nM; in test [6], 1920 nM.
Take `CC(NC(=O)c1ccc(OCc2ccccn2)c(C(F)(F)F)c1Cl)C(=O)C(=O)Nc1ccn(C)n1` (stereo not drawn): the IC50 in test [1] came to 1 nM; in test [2], 12.9 nM; in test [3], 15.1 µM; in test [4], 479 nM; in test [5], 36.3 nM.
In the case of `CCC(NC(=O)c1ccc(OCc2ccccn2)c(C(F)(F)F)c1Cl)C(=O)C(=O)Nc1ccn(C)n1` (stereo not drawn), the concentration for half-maximal inhibition (IC50) in test [1] was found to be 1.1 nM; in test [2], 20.9 nM; in test [3], 3.24 µM; in test [4], 141 nM; in test [5], 16.6 nM; in test [6], 78 nM.
Turning to `CC(C)C(NC(=O)c1ccc(OCc2ccccn2)c(C(F)(F)F)c1Cl)C(=O)C(=O)Nc1ccn(C)n1` (stereo not drawn), the half-inhibitory concentration (IC50) in test [1] stood at 2.3 nM; in test [2], 11.5 nM.
Take `CCCCC(NC(=O)c1ccc(OCc2ccccn2)c(C(F)(F)F)c1Cl)C(=O)C(=O)Nc1ccn(C)n1` (stereo not drawn): the results for the 50% inhibitory concentration (IC50) in test [1] and in test [2] were 1.9 nM and 47.9 nM, respectively.
In the case of `CNC(=O)C(=O)C(C)NC(=O)c1ccc(OCc2ccccn2)c(C(F)(F)F)c1Cl` (stereo not drawn), the IC50 in test [1] was 19.5 nM; in test [2], 46.8 nM; in test [3] it was more than 10 µM; in test [4] it was more than 10000 nM; in test [5], 1120 nM.
For the compound `CC(NC(=O)c1ccc(OCc2ccccn2)c(C(F)(F)F)c1Cl)C(=O)C(=O)N(C)C` (stereo not drawn), the half-inhibitory concentration (IC50) in test [1] is more than 10000 nM; in test [2] it was more than 10000 nM; in test [3] it was more than 10 µM; in test [4], more than 10000 nM; in test [5], more than 10000 nM.
